From US20220202739A1, “ENDOCANNABINOID MIMETIC AND ANTI-INFLAMMATORY COMPOUND CONTAINING COMPOSITIONS, METHODS OF PREPARATION AND USES THEREOF” (priority 2019, published 2022)

Legend:
[1] = tested on: COL1A1; experiment: Gene expression custom microarray, pooled keratinocyte line (Example 3): COL1A1; assay type: cell-based, human; conditions: pooled keratinocytes, 20 ppm, 24 hr
Method: (§1) Cell cultures: Received and began culture of pooled keratinocyte line from Promocell (C-12006; Lot #448Z026). Cells were seeded into a 75 cm2 flask and 2 6 well dishes for expansion and exposure per manufacturer's protocol using Keratinocyte Growth Medium (C2011B), Keratinocyte Supplement Mix (C39016) and CaCl (C34005). 2 ml of prepared solution were added to each of the 6 wells and 7 ml was added to the 75 cm2 flask.
(§2) Experimental phase: When the appropriate quantity of cells were grown, they were detached as described above, but at the final step were seeded into each well of one or more 6 well dishes. Each well received 2 ml of the cells suspended in suspension so they were seeded equally. The dishes were returned to the incubator until 85-95% confluency is reached.
(§3) It was at this stage that all wells were rinsed in PBS after aspirating the growth media. The compound(s) to be tested were previously mixed into a suitable solvent (e.g., DMSO or ethanol) that can be diluted to the desired concentration of test compound (10 μl) in the culture wells without exceeding maximum solvent concentrations and adversely effecting cell viability, and mixed with Basal Keratinocyte Media. NOTE: Standard maximum levels of solvent are 0.1% for DMSO and 0.5% for ETOH. The concentration for each tested compound/natural extract is generally listed in the left-hand column of Table 4. For certain compositions (e.g., compositions 15 and 16), other concentrations were used and are noted in the body of Table 4.
(§4) Every 2 wells on the 6 well plate served as a biological replicate for the purposes of RNA isolation and genetic expression evaluations making each 6 well dish an n=3 for the test compound contained in the media. […]
(§5) At the end of the 24 hr time period, the plates were removed from the incubator, the test media aspirated, and the cells rinsed with PBS. […] Allow 1 minute for saturation of the membrane and then centrifuge for 2 minutes to complete the RNA elution. • Quantify the quantity of RNA and store at −20 C° until use (no more than 1 month) […]

[2] = tested on: ITGB1; experiment: Gene expression custom microarray, pooled keratinocyte line (Example 3): ITGB1; assay type: cell-based, human; conditions: pooled keratinocytes, 20 ppm, 24 hr
Method: as §1, §2, §3, §4, §5

| Structure (SMILES) | ↑COL1A1 gene expression, fold increase or decrease vs untreated cells [1] | ↑ITGB1 gene expression, fold increase or decrease vs untreated cells [2] |
| --- | --- | --- |
| C=C(C)[C@@H]1CCC(C)=C[C@H]1c1c(O)cc(CCCCC)cc1O [CBD, cannabidiol, reference compound] | 1.6 fold | 1.8 fold |
| CCCCCCCCCCCCCCCC(=O)NCCO [N-palmitoylethanolamide] | −2 fold | −4 fold |
| CC(C)[C@]12O[C@H]1[C@@H]1O[C@]13[C@]1(O[C@H]1C[C@H]1C4=C(CC[C@@]13C)C(=O)OC4)[C@@H]2O [Triptolide] | −1.3 fold | −14.7 fold |
